How the values were obtained:
Log D at pH 7.4 = assay type: physicochemical
Procedure: Selected compounds were assessed for their aqueous solubility, Log D and mouse and human liver microsomal stability.

LN229 glioma cell line = experiment: cell cycle analysis (propidium iodide, flow cytometry); assay type: cell-based; details: LN229, 10 uM for 18 hours
Procedure: (§1) Cell cycle distribution was evaluated using a standard staining procedure with propidium iodide (PI) (Sigma-Aldrich; St. Louis, MO) followed by flow cytometry. For cell cycle analysis, cells were plated at low density and synchronized by starvation in serum-free media for 48 hours, then treated with drug or vehicle (control) for 18 hours in normal media with 10% serum. Next, cells were collected, washed, and resuspended in ice-cold phosphate buffered saline (PBS). Cells were fixed under gentle vortexing by dropwise addition of a 10×volume of ice-cold 80% ethanol (−20° C.) on ice. Subsequently, samples were stored at −20° C. for at least 18 hours until data acquisition. Before cell cycle analysis, cells were washed in PBS and treated with RNase A (200 μg/mL, in PBS) and PI (20 μg/mL) for 45 minutes at 23° C. Acquisition of at least 10000 events per sample was performed in UAB Flow Cytometry Facility. Data were analyzed by FlowJo v10 software (Becton, Dickinson and Company; Franklin Lakes, NJ).
(§2) HuR is one of the key regulators of cell cycle progression in cancer cells, particularly high-grade glioma; therefore, the arrest of cell cycle progression by the newly identified compounds supports HuR-targeted inhibition. FIG. 5B illustrates representative histograms of cell cycle progression in the established U251, LN229, and the PDGx XD456 glioma cell lines in the control (treatment with vehicles) and after treatment with SRI-42127. The bar graph represents the average numbers of cells in each phase of the cell cycle after treatment with the SRI-42127 normalized to the corresponding control values (vehicle treatment). There was a significant accumulation of cells in the G1 phase and a reduction of cells in the S phase after treatment with SRI-42127, 10 uM for 18 hours. […] The average reductions of cells in the S phase were 65±4% (n=3), 60±3% (n=3), and 70±3% (n=3) in U251, LN229, and XD456 cell lines, respectively, after treatment with SRI-42127 compared to the control.

[1] = system: PDGx XD456 glioma cell line; experiment: as above; assay type: cell-based; details: XD456, 10 uM for 18 hours
Procedure: as §1, §2

U251 glioma cell line = experiment: as above; assay type: cell-based; details: U251, 10 uM for 18 hours
Procedure: as §1, §2

[2] = system: Primary human neuronal cells; experiment: cytotoxicity in primary human neurons (morphology, cell number, metabolism, cleaved caspase-3); assay type: cell-based
Text: PrestoBlue cell viability reagent (ThermoFisher Scientific; Waltham, MA) was used for cell viability assays. The inhibitory dose-response data were normalized to the control (treatment with vehicle); the inhibitory dose-response curves, which were fitted by using Boltzmann equation, and the corresponding IC50s were generated by using OriginPro software (OriginLab Corporation, CA).
At the end of experiments, neurons and astrocytes were rinsed briefly with PBS and fixed by using 4% paraformaldehyde, pH 7.4 for 13 minutes at room temperature. Triton X-100 (0.3%) in PBST buffer (i.e., PBS with 0.1% Tween 20) was used for cell permeabilization for 30 minutes at room temperature. Cells were rinsed with PBST buffer 3 times for 10 minutes after fixation. Blocking buffer (3% BSA, 22.52 mg/ml glycine in PBST) was used to block unspecific antibody binding for 30 minutes at room temperature. Primary cleaved caspase 3 antibody (Cell Signaling Technology; Danvers, MA) at 1:200 dilution in PBST buffer with 1% BSA was utilized overnight at 4° C. for cleaved caspase 3 staining. The next day, cells were rinsed four times for 10 minutes with PBST buffer and then were incubated with secondary antibody (Alexa Fluor 594, goat anti-rabbit IgG, Invitrogen (Carlsbad, CA), 1:2000/5000 dilution) in PBST buffer with 1% BSA for 1 hour at room temperature in the dark. Next, cells were rinsed with PBST buffer 4 times for 10 minutes in the dark. Cell nucleus were stained with DAPI (4′,6-diamidino-2-phenylindole). Cell images were obtained with EVOS Fl (Life Technologies; Eugene, OR) imaging system.
The cellular metabolism declined by about 44% after treatment with SRI-42127, 25 uM for 48 hours as shown by FIG. 5E. […] Therefore, compound SRI-42127 inhibited glioma cell growth and had low neuronal and astrocyte cytotoxicity at concentrations below 15 uM.

microglia = experiment: PrestoBlue cell viability assay in microglia; assay type: cell-based, mouse; details: tested dose range (up to 1 μM)
HMGB1 = experiment: nuclear/cytoplasmic localization by confocal microscopy in LPS-activated primary microglia; assay type: cell-based, mouse; details: 0.5 μM for 24 hours
Procedure: To assess the specificity of SRI-42127 for blocking HuR cytoplasmic translocation, the effect of SRI-42127 on cytoplasmic translocation of HMGB1 was assessed. Like HuR, HMGB1 is nuclear predominant and translocates with microglial activation. Primary microglia were treated with LPS and 0.5 μM of SRI-42127 for 24 hours. Cells were fixed and immunostained for HMGB1 and IBA1. Nuclear/cytoplasmic localization was assessed by confocal microscopy. Total HMGB1 immunofluorescence in each cell (boundaries defined by IBA1 staining), was quantified using Fiji software. The nuclear portion was determined by quantifying the amount of HMGB1 fluorescence that overlapped with DAPI fluorescence. HuR translocation was studied in parallel with the same methodology.
In unactivated microglia (LPS-), both HuR and HMGB1 were nuclear predominant with little to no merged signal with cytoplasmic IBA1 as depicted in FIG. 11, Panel C.

spinal cord injury = experiment: mid-thoracic contusion spinal cord injury in mice; assay type: in vivo
Procedure: Wild-type male mice were subjected to a mid-thoracic contusion injury and then treated with SRI-42127 (15 mg/kg) every 8 hours for 4 days, starting 1 hour after injury. […] Not to be bound by theory, similar to spinal cord injury, chronic pain signaling is triggered by activation of microglia and astroglia in the spinal cord and production of inflammatory mediators (e.g. TNF-α, IL-1β, IL-6, INOS, CCL2) that induce hyperexcitation of sensory neurons in the dorsal horn. Mice underwent sciatic nerve lesioning to produce a spared nerve injury and then received SRI-42127 (15 mg/kg) or vehicle every 6 hours for 4 days (starting 1 h after injury). Mechanical sensitivity was assessed at day 7 post-injury. […] Following this test, a subset of mice in the DMSO-treated group was given an acute administration of SRI-42127 (or DMSO) and their mechanical sensitivity was tested at 30 minutes and 60 minutes post-administration. Acute treatment with SRI-42127 reversed allodynia in these mice for at least 60 minutes (p<0.01, FIG. 21, Panel D).

With `CN(c1ccc2ncc(-c3ccc4cn[nH]c4c3)n2n1)C1CCOCC1` [Compound 19] the logD (Log D at pH 7.4) was 3.1, the “increase of cells in the G1 phase compared to the control” value (“increase of cells in the G1 phase” for short) (LN229 glioma cell line) was 56±28% and the “reduction of cells in the S phase compared to the control” value (from here on “reduction of cells in the S phase”) (LN229 glioma cell line) was 60±3%. The “increase of cells in the G1 phase” value [1] was 210±40%, the “reduction of cells in the S phase” value [1] was 70±3% and the “increase of cells in the G1 phase” value (U251 glioma cell line) was 97±33%. For the same compound, the “reduction of cells in the S phase” value (U251 glioma cell line) was 65±4%, the “decline of cellular metabolism” value ([2]; 25 uM for 48 hours) was “about 44%” and the “cleaved caspase-3 immunostaining” value ([2]; neurons, up to 15 uM, 48 hours) was “no significant alterations”. The “morphological changes of neurons” value ([2]; up to 15 uM for 48 hours) was “no morphological changes”, the “neuron cell numbers and cell sprouting” value ([2]; up to 15 uM for 48 hours, listed as SRI-42127) was “remained unchanged” and the toxicity to microglia (microglia) was “did not cause toxicity”. The “HMGB1 N/C ratio” value (HMGB1) was “no effect”, the “increase in surviving neurons in the epicenter of injury” value (spinal cord injury; 15 mg/kg every 8 hours for 4 days, stereology 2 weeks post injury) was over 2 fold and the “increase in neuronal counts by stereology” value (spinal cord injury; 4 weeks post SCI (FIG. 21, Panel B)) was over 50%.

From US12435091B2, “RNA-binding protein multimerization inhibitors and methods of use thereof” (THE UAB RESEARCH FOUNDATION, priority 2020, dated 2025)
